Values of other authors as cited in US20230096856A1, “COMBINED TREATMENT REGIMEN OF […]/SEDATION WITH ADMINISTRATION OF P[…] ASSOCIATED WITH REDUCTION IN NEUROP[…]” (priority 2021, published 2023).

What was measured:
Sigma-1 receptors [1] = biological target: Sigma-1 receptors (Homo sapiens, UniProt Q99720); details: receptors that modulate immune responses in human monocyte-derived dendritic cells
sigma-1 receptors [2] = test system: sigma-1 receptors
[3] = test system: hallucinogenic experience; details: in vivo
[4] = test system: ventral dentate gyrus of the hippocampus; details: single dose
tinnitus = details: single dose, mice
[5] = test system: extracellular glutamate levels; details: rat models
BDNF = details: rats exposed to psychological stress
AMPA receptor = details: sub-anesthetic dose, animal studies
[6] = test system: gamma-aminobutyric acid type A receptors; details: acutely
[7] = test system: N-methyl-D-aspartate (NMDA) receptors
5-HT2A receptors = 5-HT2A receptors (Homo sapiens, UniProt P28223)
5-HT2A receptors, sequence (P28223 whole entry): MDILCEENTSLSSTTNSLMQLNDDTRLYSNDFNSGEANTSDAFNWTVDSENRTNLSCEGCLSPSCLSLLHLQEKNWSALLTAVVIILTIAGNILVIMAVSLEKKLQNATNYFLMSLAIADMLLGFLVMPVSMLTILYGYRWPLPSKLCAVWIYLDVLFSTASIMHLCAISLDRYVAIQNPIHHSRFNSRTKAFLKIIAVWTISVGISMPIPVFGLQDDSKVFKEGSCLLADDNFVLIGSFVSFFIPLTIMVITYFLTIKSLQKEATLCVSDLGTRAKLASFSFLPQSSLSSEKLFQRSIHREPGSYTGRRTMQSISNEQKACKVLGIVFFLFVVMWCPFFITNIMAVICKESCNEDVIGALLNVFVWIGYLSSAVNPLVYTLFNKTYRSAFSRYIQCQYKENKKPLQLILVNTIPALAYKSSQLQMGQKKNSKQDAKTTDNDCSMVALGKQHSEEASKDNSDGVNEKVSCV

Sigma-1 receptors, sequence (Q99720 whole entry): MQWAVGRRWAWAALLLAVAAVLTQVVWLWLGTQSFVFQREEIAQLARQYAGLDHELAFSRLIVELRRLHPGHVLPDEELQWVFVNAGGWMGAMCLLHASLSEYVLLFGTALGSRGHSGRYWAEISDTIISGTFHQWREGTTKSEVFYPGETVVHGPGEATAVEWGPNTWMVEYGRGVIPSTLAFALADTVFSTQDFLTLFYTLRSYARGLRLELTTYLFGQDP

COc1ccc2[nH]cc(CCN(C)C)c2c1 [5-MeO-DMT, 5-5-Methoxy-N,N-dimethyltryptamine]
affinity for Sigma-1 receptors (Sigma-1 receptors [1]): functionally significant affinity
PLA2 activation (phospholipase A2 (PLA2)): differentially strong phospholipase A2 (PLA2) activation
IFNc and GM-CSF expression (sigma-1 receptors [2]): suppressing
secretion level of anti-inflammatory interleukin 10 cytokine (sigma-1 receptors [2]): increase the secretion level
duration of acute hallucinogenic state [3]: 5 to 20 min
duration of hallucinogenic experience [3]: 10 to 20 min
cell proliferation and neuronal survivability in the ventral dentate gyrus of the hippocampus [4]: stimulates cell proliferation and neuronal survivability
neurogenesis in the ventral dentate gyrus ([4]; adult mice): enhances neurogenesis
mGluR5 regulation (human cerebral organoids): downregulation of mGluR5
neural plasticity and anti-inflammatory activity (human cerebral organoids): potentiation of neural plasticity and elevated anti-inflammatory activity
tinnitus (tinnitus): can be reduced

CNC1(c2ccccc2Cl)CCCCC1=O (stereo not drawn) [ketamine]
extracellular glutamate levels in prefrontal-limbic circuitry [5]: increases extracellular glutamate levels

O=C(c1ccc(F)cc1)C1CCN(CCn2c(=O)[nH]c3ccccc3c2=O)CC1 [ketanserin]
BDNF mRNA (BDNF): reducing the presence BDNF mRNA
immunoreactivity indicative of BDNF presence in brain areas (BDNF): inhibits BDNF immunoreactivity

CC(C)c1cccc(C(C)C)c1O [propofol]
expression of AMPA pGluR1 (AMPA receptor): increase the expression of AMPA pGluR1 in dose-dependent manner
speed and degree of glutamate-induced desensitization of the AMPA receptor in neurons (AMPA receptor): can decrease
LTP induction [6]: inhibits long term potentiation (LTP) induction
time after induction until desired SR>80% was reached (depression; EEG suppression ratio): About five
QIDS-SR scale scores (depression; after approximately four sessions (1 week), asymptote at approximately 7 sessions (two weeks)): significant reduction
average recovery time until oriented to time and place (depression; after eye opening): 5 to 10 min
cognitive side effects common for ECT (short term memory loss) (depression; in vivo): do not occur
effect on efficacy of ECT in treating depression (depression; in vivo): does not diminish the efficacy
period within which severity of self-report symptoms of moderate to severe depression is reduced (depression; in vivo): 1-2 weeks
time to state of unconsciousness upon induction (depression; in vivo): one
inhibition of NMDA receptors [7]: does not induce inhibition

COC(=O)[C@@H]1C[C@H](OC(C)=O)C(=O)[C@H]2[C@@]1(C)CC[C@H]1C(=O)O[C@H](c3ccoc3)C[C@]21C [salvinorin A]
interaction with 5-HT2A receptors (5-HT2A receptors): interact minimally, indirectly, or not at all

ibogaine
interaction with 5-HT2A receptors (5-HT2A receptors): interact minimally, indirectly, or not at all
